From patent US10485769B2, “Cholesteryl ester transfer protein (CETP) inhibition in the treatment of cancer” (KING ABDULLAH UNIVERSITY OF SCIENCE AND TECHNOLOGY, priority 2015, dated 2019)
Read-outs that look alike come from different tables or passages of the source.

Legend:
[1] = tested on: MCF-7 cells; test: Mitochondrial Outer Membrane Potential (MOMP) by flow cytometry; assay type: cell-based, human; conditions: 10 μM PL, AP; 100 mM H2O2 positive control; versus untreated cells
Procedure: FIG. 2: Mode of induction in MCF-7 cells after treatment with AP and PL was determined by measuring changes in MOMP and levels of apoptosis-associated proteins. The cells were incubated with 10 μM AP and PL for different time intervals to capture the timeline of apoptosis induction in MCF-7 cells. The changes in MOMP were measured using flow cytometry after treating MCF-7 cells with PL and AP for 1, 2 and 4 h (A). The alteration in expression of several apoptosis-associated proteins were determined using western blotting after incubating MCF-7 cells for 1, 2, 4, 6 h with PL (C, E) and AP (D. F).
The changes in Mitochondrial Outer Membrane Potential (MOMP) and proteins involved in the apoptotic cascade were assessed (FIG. 2).

[2] = tested on: apoptosis-associated proteins in MCF-7 cells; test: Western blotting of apoptosis-associated proteins; assay type: cell-based, human; conditions: 10 μM; for PARP-1 cleavage: 12 and 24 h time points; for expression of DNA damage marker pH2AX: as early as 2 h, remained elevated
Procedure: FIG. 2: Mode of induction in MCF-7 cells after treatment with AP and PL was determined by measuring changes in MOMP and levels of apoptosis-associated proteins. The cells were incubated with 10 μM AP and PL for different time intervals to capture the timeline of apoptosis induction in MCF-7 cells. The changes in MOMP were measured using flow cytometry after treating MCF-7 cells with PL and AP for 1, 2 and 4 h (A). […] F).
Intrinsic apoptosis is activated by the mitochondria where MOMP is reduced and the imbalance between pro- and anti-apoptotic factors results in activation of caspases 9, 3 and 7, cleavage of caspase substrate like PARP-1 (Poly [ADP-ribose] polymerase 1) and fragmentation of DNA. After treatment with 10 μM PL and AP alterations in the ratio of Bax and Bcl2 were observed and pro-caspase 9 levels were reduced (FIGS. 2B and C).

[3] = tested on: MCF-7 tumors; test: Efficacy in MCF-7 xenograft nude mouse model of BC; assay type: in vivo, nude mice; conditions: 21 days
Procedure: FIG. 3: Comparative efficacy and toxicity study in MCF-7 xenograft nude mouse model of BC. The efficacy of single i.p. injection of vehicle, PL (2 mg/kg) and AP (5 mg/kg) in 5 mice in each group was compared over a period of 21 days.
MCF-7 tumors grown up to 300 mm3 in four nude mice were harvested, dissected into 1-2 mm3 fragments and implanted into the study group for further testing. Nude mice (with tumor volume of 150 mm3) were treated with 25% Polyethylene glycol (PEG) 400 as vehicle, 2 mg/kg PL and 5 mg/kg AP for 21 days during which tumor volume, body weight and, at the time of sacrifice, tumor weight was measured.

[4] = tested on: lipid rafts of MCF-7 cells; test: Lipid raft GM1 staining (CT-B Alexa 488); assay type: cell-based, human; conditions: 10 μM, over time (10 min to 2 h)
Procedure: FIG. 4: Lipid raft GM1 staining in MCF-7 cells with the Vybrant® Alexa Fluor® 488 Lipid Raft Labeling Kit. Cells were cultured in 96-well plates and stained with CT-B Alexa 488 in untreated cells, and after treatment with 10 μM PL or AP for 10 min, 30 min, 1 h and 2 h.
Cholesterol plays an integral role in the formation of lipid rafts, steroid hormone synthesis and cell membrane formation. […] Cancer cells have a greater affinity for cholesterol to pace with demands of proliferation and synthesis of new membranes and lipid rafts. Pathway predictions derived from microarray expression data pointed at the impairment of cholesterol related processes by AP. To confirm whether cholesterol related pathways were affected by PL or AP, we performed lipid raft staining in MCF-7 cells and cholesterol quantitation in both MCF-7 cells and plasma samples obtained from mice. […].

[5] = tested on: BJ cells; test: BJ cell morphology on treatment (lipid raft staining experiment); assay type: cell-based, human
[6] = tested on: CETP; test: CETP mRNA in mice tumor samples, qRT-PCR; assay type: in vivo; conditions: 2 mg/kg PL, 5 mg/kg AP
Procedure: (§1) FIG. 7: Levels of CETP mRNA in tumor (A) and protein in serum (B) in mice tumor samples after treatment with 2 mg/kg PL or 5 mg/kg AP were determined with the RT-PCR and western blotting, respectively. Fold change in expression of serum protein was determined using densitometry analysis of western blots using ImageJ (C). CETP activity in serum was estimated using CETP activity kit (name of kit/manufacturer) (D). Values represent the means±SD of three independent experiments. * where p≤0.05, and ** where p≤0.005.
(§2) We performed qRT-PCR using mRNA isolated from mice tumor samples to determine the expression of CETP after treatment with PL and AP (FIG. 7A). […] CETP mRNA is translated into 74 kD protein comprised of 476 amino acids that localizes in plasma. […] CETP protein levels in mice serum samples were determined by western blotting (FIG. 7B).

[7] = tested on: CETP; test: CETP protein in mice serum, western blotting and densitometry; assay type: in vivo; conditions: 2 mg/kg PL, 5 mg/kg AP, compared to Vehicle
Procedure: as §1, §2

[8] = tested on: MCF-7 CETP siRNA cells; test: MMP, caspase-3/7 activity and apoptosis in CETP knockdown MCF-7 cells; assay type: cell-based, human; conditions: for caspases-3/7 activity / increase of level of apoptosis: 10 μM PL or AP; for caspases-3/7 activity: CETP knockdown; for increase of level of apoptosis: MCF-7 CETP siRNA cells; for reduction in MMP: 10 μM, CETP knockdown compared to Ctrl siRNA cells
Procedure: (§3) FIG. 10: The effect of CETP mRNA silencing on MMP (A), Capase-3/7 activity (B) and apoptosis in MCF-7 (C) and BJ (D) untransfected, cntl siRNA and CETP knockout cells after treatment with 10 μM PL or AP. Values represent the means±SD of three independent experiments.
FIG. 12: The effect of CETP mRNA knockout on Capase-3/7 activity (A) and apoptosis (B) in MCF-7 cntl siRNA and CETP knockout cells after treatment with 25 μM tamoxifen for 24 h. Values represent the means±SD of three independent experiments.
Since, as shown above, CETP is required for optimal growth of MCF-7 cells, we further hypothesized that CETP may help cancer cell to resist/escape apoptotic signals thus preventing cell death. Several apoptotic markers such as MOMP, phosphatidylserine exposure and caspase-3/7 activity were tested to establish a link between CETP and apoptosis.
(§4) Next, we intended to see if CETP silencing increased sensitivity of MCF-7 cells to apoptosis.
To test if effect of CETP knockout on apoptosis in MCF-7 is limited to AP, we treated the CETP knockout MCF-7 cells with tamoxifen (a known first line drug for breast cancer treatment). […] This observation was not limited to PL and AP as similar observations were made in CETP knockdown cells treated with tamoxifen (FIG. 12).

[9] = tested on: BJ CETP knockdown cells; test: Apoptosis in BJ CETP knockdown cells; assay type: cell-based, human; conditions: 10 μM PL or AP
Procedure: as §3, §4

[10] = tested on: BJ cells; test: Viability of normal cells, AP combined with chemotherapeutic drugs; assay type: cell-based, human
Procedure: FIG. 13: The effect of AP on viability of BJ and MCF-7 cells when combined with different doses of various chemotherapeutic drugs for 24 h. Values represent the means±SD of three replicates.
We anticipated that AP might have the potential to reduce toxicity and increase efficacy of known chemotherapeutic drugs which may enhance the usage of these drugs at lower concentrations with increased cancer killing effects. To test this preliminary, we treated normal (BJ) and Cancer (MCF-7) cells with different chemotherapeutic drugs as summarized in FIG. 13.
It is also clear from data that the cancer killing effect achieved using 20 μM tamoxifen was possible to achieve using a combination of AP with 10 μM tamoxifen while enhancing the viability of normal cells at the same time.

CC(=O)Oc1cccc2c1C(=O)C=C(C)C2=O [AP, Acetyl Plumbagin]
MOMP, fluorescence in the FL-2 channel [1]: lower fluorescent values
pro-caspase 9 levels [2]: reduced
ratio of Bax and Bcl2 [2]: alterations
reduction of pro-caspase 7, time observed [2]: reduced at 12 h
PARP-1 cleavage [2]: substantially reduced from full length to the cleaved fragment
expression of DNA damage marker pH2AX [2]: significantly increased
reduction of tumor volume ([3]; 2 mg/kg PL, 5 mg/kg AP): 37%
inhibition of tumor growth ([3]; 5 mg/kg AP): 45%
distribution of lipid rafts (GM1 in plasma membranes) [4]: disrupted
effects on BJ cell morphology ([5]; treated with PL or AP): no adverse effects
reduction of CETP expression in tumors (mRNA) [6]: 60%
CETP protein levels in serum [7]: upregulated
caspases-3/7 activity [8]: significantly increased
increase of level of apoptosis [8]: 10%
reduction in MMP [8]: 17%
sensitivity to apoptosis [9]: no increased sensitivity to apoptosis
increase of cell viability of normal cells ([10]; AP in combination with 5-Florouracil, 24 h): 7%
increase of viability of normal cells ([10]; AP with 10 μM of tamoxifen, 24 h): 7%
rescue of normal cells from toxic effects of tamoxifen ([10]; AP with tamoxifen at higher concentrations): unable to rescue

CC1=CC(=O)c2c(O)cccc2C1=O [PL, 5-hydroxy-2-methyl-1,4-naphthoquinone, reference compound]
MOMP, fluorescence in the FL-2 channel [1]: lower fluorescent values
pro-caspase 9 levels [2]: reduced
ratio of Bax and Bcl2 [2]: alterations
reduction of pro-caspase 7, time observed [2]: as early as 2 and 6 h
PARP-1 cleavage [2]: substantially reduced from full length to the cleaved fragment
expression of DNA damage marker pH2AX [2]: significantly increased
reduction of tumor volume ([3]; 2 mg/kg PL, 5 mg/kg AP): approximately 17%
tumor weight in comparison to vehicle ([3]; 2 mg/kg PL): no difference
distribution of lipid rafts (GM1 in plasma membranes) [4]: disrupted
effects on BJ cell morphology [5]: no adverse effects
reduction of CETP expression in tumors (mRNA) [6]: no effect
CETP protein levels in serum [7]: slightly reduced
caspases-3/7 activity [8]: significantly increased
increase of level of apoptosis [8]: 10%
reduction in MMP [8]: 13%
sensitivity to apoptosis [9]: no increased sensitivity to apoptosis
